Measurements published in PMC12686243, “Synthesis and preclinical evaluation of FAP-targeting radiotracers for PET and optical imaging” (EJNMMI Radiopharmacy and Chemistry, 2025).

Columns and labels:
[1] = biological target: T1, hFAPα, recombinant protein (Homo sapiens, UniProt Q12884); test: fluorometric enzyme inhibition assay for FAP; format: biochemical; settings: Morrison equation for tight binding inhibitors; substrate Ala-Pro-AMC; mean ± SD
T1 construct: purchased
T1 sequence (Q12884 1-760): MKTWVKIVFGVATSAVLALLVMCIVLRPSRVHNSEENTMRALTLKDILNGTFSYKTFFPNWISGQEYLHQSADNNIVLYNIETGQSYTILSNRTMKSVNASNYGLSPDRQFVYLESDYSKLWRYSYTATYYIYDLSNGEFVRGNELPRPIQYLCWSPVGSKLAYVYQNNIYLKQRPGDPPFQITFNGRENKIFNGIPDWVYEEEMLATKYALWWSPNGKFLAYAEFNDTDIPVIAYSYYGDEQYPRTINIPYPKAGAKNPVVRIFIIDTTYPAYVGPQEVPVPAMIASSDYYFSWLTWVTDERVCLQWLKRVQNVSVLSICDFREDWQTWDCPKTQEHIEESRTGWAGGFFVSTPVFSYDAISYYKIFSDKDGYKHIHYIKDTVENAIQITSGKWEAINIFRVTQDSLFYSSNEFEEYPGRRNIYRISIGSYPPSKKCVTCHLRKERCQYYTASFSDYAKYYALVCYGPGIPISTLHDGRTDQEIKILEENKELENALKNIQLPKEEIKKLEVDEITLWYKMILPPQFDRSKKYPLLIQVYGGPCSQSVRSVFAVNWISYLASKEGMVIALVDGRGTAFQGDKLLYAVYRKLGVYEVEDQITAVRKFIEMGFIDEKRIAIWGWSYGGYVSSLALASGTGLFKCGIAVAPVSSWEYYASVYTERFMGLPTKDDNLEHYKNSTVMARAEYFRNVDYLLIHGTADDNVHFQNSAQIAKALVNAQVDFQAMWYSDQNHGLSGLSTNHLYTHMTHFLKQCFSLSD
Procedure: Affinity towards FAP was tested using a commercially available fluorometric assay. At the day of the experiment, all tested compounds were diluted in assay buffer (DPP assay buffer, BPS Bioscience, San Diego, CA, USA,) in a 1:1 dilution series, resulting in eleven concentrations, ranging from 2000 nM to 1.950 nM, equal to 200 nM to 0.195 nM per well. The substrate Ala-Pro-AMC (BPS Bioscience, concentration per well: 5 μM, Km = 244 μM (Edosada et al. [2006])) was pipetted along with the inhibitor into a 96-well plate. Subsequently, the enzyme (hFAPα, recombinant protein) was dissolved in assay buffer and added to the wells. The final concentration of DMSO per well was 0.2%. The 96-well plate was immediately loaded into a multimode plate reader (Biotek Cytation 5, Agilent, Santa Clara, CA, USA). The fluorescence intensity for each well was measured over a time course of 30 min with measurement intervals of 15 s, an excitation wavelength of 360 ± 20 nm and an emission wavelength of 450 ± 20 nm. Data (relative fluorescence units, RFU) over the total measurement time was analyzed by linear regression. The slope of the resulting graphs was analyzed over the inhibitor concentration. The enzyme inhibition constant Ki was calculated using the Morrison equation for tight binding inhibitors (Williams and Morrison [1979]). […]

[2] = biological target: T2, human recombinant dipeptidylpeptidase IV (Homo sapiens, UniProt P27487); test: fluorometric enzyme inhibition assay for DPPIV; format: biochemical
T2 construct: purchased Cayman Chemical
T2 sequence (P27487 whole entry): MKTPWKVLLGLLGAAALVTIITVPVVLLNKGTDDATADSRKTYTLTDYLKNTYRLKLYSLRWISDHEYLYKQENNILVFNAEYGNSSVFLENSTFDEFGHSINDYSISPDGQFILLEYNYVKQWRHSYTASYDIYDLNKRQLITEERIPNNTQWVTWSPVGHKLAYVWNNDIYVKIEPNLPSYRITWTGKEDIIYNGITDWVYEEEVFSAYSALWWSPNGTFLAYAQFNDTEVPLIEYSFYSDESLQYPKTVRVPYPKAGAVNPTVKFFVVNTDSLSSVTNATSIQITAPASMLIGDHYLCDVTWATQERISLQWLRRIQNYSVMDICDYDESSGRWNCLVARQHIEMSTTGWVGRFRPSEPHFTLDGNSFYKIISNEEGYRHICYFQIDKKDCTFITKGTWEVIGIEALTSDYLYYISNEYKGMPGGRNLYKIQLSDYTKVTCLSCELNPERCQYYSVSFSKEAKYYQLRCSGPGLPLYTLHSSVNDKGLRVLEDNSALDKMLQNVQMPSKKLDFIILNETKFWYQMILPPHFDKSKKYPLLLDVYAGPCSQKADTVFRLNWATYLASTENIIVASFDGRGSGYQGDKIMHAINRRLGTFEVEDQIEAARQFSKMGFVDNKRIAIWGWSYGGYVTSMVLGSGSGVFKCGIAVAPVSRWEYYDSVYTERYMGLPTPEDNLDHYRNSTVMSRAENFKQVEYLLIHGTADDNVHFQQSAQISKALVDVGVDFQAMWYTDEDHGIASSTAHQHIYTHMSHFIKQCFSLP
Procedure: The affinity towards DPPIV was determined using a commercially available inhibitor screening assay kit (Cayman Chemical, USA). The assay was performed according to the manufacturer’s instructions, and the data was analyzed as described above.

[3] = test system: WT-HT1080 cells; test: fluorescence microscopy of cellular binding and uptake; format: cell-based, human; settings: 1 µM, 37 °C, up to 4 h
Procedure: WT/hFAP-HT1080 cells were seeded in an 18-chamber slide with 10,000 cells/well and cultured overnight. The medium was discarded and replaced by medium containing 1 µM of NODAGA-FAP647. The cells were then further incubated at 37 °C and 5% CO2. The binding of the ligand was stopped at the indicated time points by discarding the media and washing the cells twice with ice-cold PBS. The cells were then quickly fixed with 4% PFA/2.5% saccharose in PBS at 20 °C for 20 min. Following the fixation, cells were incubated with a 1:200 dilution of WGA-CF488A (Biotium #29022–1) in PBS to stain the cell membranes. Finally, the cell nuclei were stained with Hoechst33258 (Sigma #94403) diluted 5 µg/ml in PBS for 30 min at 20 °C. Cells were visualized with the Fluoview 1000 confocal laser scanning microscope (Olympus) using a 100 × oil immersion objective. Three representative images were captured for each well.

[4] = test system: hFAP-HT1080 and WT-HT1080 xenografts; test: in vivo fluorescence imaging of xenograft-bearing mice; parameters: species or system nude mice
Text: Female athymic NMRI-nude mice (Rj:NMRI-Foxn1nu, Janvier Labs, France or Charles River, Germany) between 8 and 20 weeks of age were used. Subsequently, the prepared cells (1.0–2.0 × 10^6 hFAP/WT-HT1080 per animal) were subcutaneously injected into the right and left thigh, respectively. Xenograft tissue for real-time binding experiments was derived from animals injected with both target-positive and negative cells, however only showing growth of one tumor entity. When approaching endpoints, mice were anesthetized and euthanized. The tumor was quickly removed, frozen in − 45 °C 2-methylbutane and stored in sealed tubes at − 80 °C.
Optical imaging was performed using a multimodal IVIS-CT (Perkin Elmer, USA). Compounds were injected [0.09 mg/kg (n = 1)/0.33 mg/kg (n = 3) for NODAGA-FAP647; 0.17 mg/kg (n = 3) for NODAGA-FAP800, diluted in 150 µL of sterile 0.9% NaCl solution] into the lateral tail vein, either directly or via catheter. Fluorescence imaging started ~ 2 min post injection for 2–3 h, with 1 min, 3–5 min and 10 min intervals, along with a white-light image. Additional scans were performed after 24 h and, if applicable, later. The fluorescence of the respective fluorophore was captured (NODAGA-FAP647: λEx/Em = 640/680 nm, NODAGA-FAP800: λEx/Em = 745/800 nm). Emitted fluorescence intensity was analyzed (Perkin Elmer, Living Image 4.7.4) in raw data images.

CN(CCCN1CCN(C(=O)[C@H](CCCCNC(=O)CC[C@H](C(=O)O)N2CCN(CC(=O)O)CCN(CC(=O)O)CC2)NC(=O)CCOCCOCCOCCOCCNC(=O)CCCCCC2(C)C(/C=C/C=C/C=C3/N(CCCS(=O)(=O)O)c4ccc(S(=O)(=O)O)cc4C3(C)C)=[N+](CCCS(=O)(=O)O)c3ccc(S(=O)(=O)[O-])cc32)CC1)c1ccc2nccc(C(=O)NCC(=O)N3CC(F)(F)C[C@H]3C#N)c2c1 (stereo partly drawn) [NODAGA-FAP647]
Ki [1]: 0.237 ± 0.064 nM
IC50 [2]: > 10000 nM
binding or uptake in WT-HT1080 cells [3]: did not show any binding or uptake
ratio hFAP-HT1080/muscle fluorescence ([4]; 120 min post injection): 3.5
ratio hFAP/WT-HT1080 tumor fluorescence ([4]; 120 min post injection): 2.5
fluorescence in hFAP-HT1080 tumor higher than in WT-HT1080 tumor or muscle ([4]; 24 h post injection): roughly 60%
reduction of fluorescence signal in hFAP-HT1080 tumor ([4]; after 24 h post injection): 59%
WT-HT1080 to muscle ratio ([4]; over the imaging period): close to one
time to plateau of fluorescence in hFAP-HT1080 tumor ([4]; post injection): ~ 10 min
